Patent US10214514B2, “Hedgehog antagonists having zinc binding moieties” (Curis, Inc., priority 2011, dated 2019)
Where “and” joins values, the source holds several entries; their conditions need not be identical. Identical values can stand only once.

Tests used:
[1] = system: Hedgehog pathway signaling (Gli-Luc response, OCT-SHH activated 10 Tl/2 (s12) cells); assay: Hedgehog signalling inhibition, Gli-Luc reporter assay (Hh Reporter assay); type: cell-based
Description: Example 17: An In Vitro Assay which Determines the Ability of a Test Compound to Inhibit Hedgehog Signalling
Compounds to be tested were dissolved in DMSO to a concentration of 10 mM, and stored at −20° C. To activate the Hedgehog pathway in the assay cells, an octylated (lipid-modified) form of the N-terminal fragment of the Sonic Hedgehog protein (OCT-SHH) was used. This N-terminal SHH fragment is produced bacterially. See, for example, Taylor F R, et al., Biochemistry, 2001, 40: 4359-71.
Compounds were tested in the“Gli-Luc” assay below, using the cell line 10 Tl/2 (s12), wherein the cells contain a Hedgehog-responsive reporter construct utilizing Luciferase as the reporter gene. In this way, Hedgehog pathway signaling activity is measured via the Gli-Luc response.
10 Tl/2 (s12) cells were plated in a 96-well micro-titer plate (MTP) at 20,000 cells/well in full medium [DMEM with 10% FBS]. Then plates were placed in the incubator for incubation overnight (0/N), at 37° C. and 5% CO2. After 24 h, the medium was replaced with Luciferase-assay medium (DMEM with 0.5% FBS). Test compounds were thawed and diluted in assay medium at 3:1000 (about 300-fold) resulting in a starting concentration of about 0.0003 uM to 30 uM. Subsequently, 150 ul of each sample was added to the first wells (in triplicate). The MTP samples were then diluted at 3-fold dilutions to a total of seven wells, ultimately resulting in a regiment of seven dilutions in triplicate, for each compound. Next, the protein ligand OCT-SHH was diluted in Luciferase-assay medium and added to each well at a final concentration of 0.3 μg/ml. Plates were then returned to the incubator for further incubation O/N, at 37° C. and 5% CO2. After about 24 h, plates were removed from the incubator and the medium was aspirated/discarded.
Wells were washed once with assay buffer [PBS+1 mM Mg^2+ and 1 mM Ca^2+]. Then 50 μl of assay buffer was added to each well. The Luciferase assay reagent was prepared as described by the vendor (LucLite kit from Packard), and 50 μl was added to each well. Plates were incubated at room temperature (RT) for about 30 minutes after which the signals were read, again at RT, on a Topcount (Packard). […]

[2] = system: HDACs (HeLa cell nuclear extracts); assay: HDAC enzymatic activity inhibition assay (Biomol Color de Lys system); type: biochemical; details: class symbols
Description: HDAC inhibitory activity was assessed using the Biomol Color de Lys system (AK-500, Biomol, Plymouth Meeting, Pa.). Briefly, HeLa cell nuclear extracts were used as a source of HDACs. Different concentrations of test compounds were serially diluted in dimethylsulfoxide (DMSO) and added to HeLa cell nuclear extracts in the presence of a colorimetric artificial substrate. […] Reactions were carried out at room temperature (25° C.) for 1 hour before addition of developer for termination. […] Data were analyzed using GraphPad Prism (v4.0a) with a sigmoidal dose response curve fitting for IC50 calculation.

[3] = S12, Gli-Luc reporter, class symbols

| SMILES | IC50 [1, 3] | IC50 [2] | IC50 ([1]; Gli-Luc reporter, numeric values for reference compounds) | IC50 ([1]; S12, Gli-Luc reporter, numeric values for reference compounds) | melting point |
| --- | --- | --- | --- | --- | --- |
| COc1cc(CN(C)c2ncc(C(=O)NO)cn2)cc(C(=O)Nc2ccc(Cl)c(-c3nc4cc(N(C)C)ccc4[nH]3)c2)c1 [Compound 259, 2-((3-(4-Chloro-3-(5-(dimethylamino)-1H-benzo[d]imidazol-2-yl)phenylcarbamoyl)-5-methoxybenzyl)(methyl)amino)-N-hydroxypyrimidine-5-carboxamide] | 10 to 100 nM | 10 to 100 nM | – | – | – |
| CS(=O)(=O)c1ccc(C(=O)Nc2ccc(Cl)c(-c3ccc(/C=C/C(=O)NO)cn3)c2)c(Cl)c1 [Compound 1, (E)-2-chloro-N-(4-chloro-3-(5-(3-(hydroxyamino)-3-oxoprop-1-enyl)pyridin-2-yl)phenyl)-4-(methylsulfonyl)benzamide] | 100 to 1000 nM | 100 to 1000 nM | – | – | – |
| COc1cc(OC)cc(C(=O)Nc2ccc(Cl)c(-c3nc4ccc(N(C)C)cc4[nH]3)c2)c1 [Compound A, reference compound] | – | – | 24 nM and 13.1 nM | 17 nM | – |
| O=C(NO)c1ccc(OCCNS(=O)(=O)c2ccc(C(=O)Nc3ccc(Cl)c(-c4ccccn4)c3)c(Cl)c2)cc1 [Compound 266, 2-Chloro-N-(4-chloro-3-(pyridin-2-yl)phenyl)-4-(N-(2-(4-(hydroxycarbamoyl)phenoxy)ethyl)sulfamoyl)benzamide] | 1 to 10 nM | 100 to 1000 nM | – | – | 138 to 139 °C |
| CS(=O)(=O)c1ccc(C(=O)Nc2ccc(Cl)c(-c3ccc(C(=O)NO)cn3)c2)c(Cl)c1 [Compound 5, 6-(2-Chloro-5-(2-chloro-4-(methylsulfonyl)benzamido)phenyl)-N-hydroxynicotinamide] | 100 to 1000 nM | 100 to 1000 nM | – | – | – |
| CS(=O)(=O)c1ccc(C(=O)Nc2ccc(Cl)c(-c3ccc(OCCCCCCC(=O)NO)cn3)c2)c(Cl)c1 [Compound 23, 2-Chloro-N-{4-chloro-3-[5-(6-hydroxycarbamoyl-hexyloxy)-pyridin-2-yl]-phenyl}-4-methanesulfonyl-benzamide] | 100 to 1000 nM | 10 to 100 nM | – | – | 140 to 145 °C |
| COc1cc(CNc2ncc(C(=O)NO)cn2)cc(C(=O)Nc2ccc(Cl)c(-c3nc4cc(N(C)C)ccc4[nH]3)c2)c1 [Compound 258, 2-(3-(4-Chloro-3-(5-(dimethylamino)-1H-benzo[d]imidazol-2-yl)phenylcarbamoyl)-5-methoxybenzylamino)-N-hydroxypyrimidine-5-carboxamide] | 10 to 100 nM | 10 to 100 nM | – | – | 158 to 159 °C |
| CN(Cc1ccc(C(=O)Nc2ccc(Cl)c(-c3ccccn3)c2)c(Cl)c1)c1ncc(C(=O)NO)cn1 [Compound 263, 2-((3-Chloro-4-(4-chloro-3-(pyridin-2-yl)phenylcarbamoyl)benzyl) (methyl)amino)-N-hydroxypyrimidine-5-carboxamide] | 100 to 1000 nM | 10 to 100 nM | – | – | – |
| O=C(NO)c1cnc(NS(=O)(=O)c2ccc(C(=O)Nc3ccc(Cl)c(-c4ccccn4)c3)c(Cl)c2)nc1 [Compound 265, 2-(3-Chloro-4-(4-chloro-3-(pyridin-2-yl)phenylcarbamoyl)phenylsulfonamido)-N-hydroxypyrimidine-5-carboxamide] | – | > 1000 nM | – | – | – |
| CS(=O)(=O)c1ccc(C(=O)Nc2ccc(Cl)c(-c3ncc(C(=O)NO)cn3)c2)c(Cl)c1 [Compound 7, 2-[2-Chloro-5-(2-chloro-4-methanesulfonyl-benzoylamino)-phenyl]-pyrimidine-5-carboxylic acid hydroxyamide] | > 1000 nM | 100 to 1000 nM | – | – | – |
| CN(C)c1ccc2[nH]c(-c3cc(NC(=O)c4cccc(OCCCCCCC(=O)NO)c4)ccc3Cl)nc2c1 [Compound 111, N-(4-Chloro-3-(5-(dimethylamino)-1H-benzo[d]imidazol-2-yl)phenyl)-3-(7-(hydroxyamino)-7-oxoheptyloxy)benzamide] | 100 to 1000 nM | 10 to 100 nM | – | – | – |
| O=C(NO)c1cnc(N2CCC(CNS(=O)(=O)c3ccc(C(=O)Nc4ccc(Cl)c(-c5ccccn5)c4)c(Cl)c3)CC2)nc1 [Compound 90, 2-(4-((3-Chloro-4-(4-chloro-3-(pyridin-2-yl)phenylcarbamoyl)phenylsulfonamido)methyl)piperidin-1-yl)-N-hydroxypyrimidine-5-carboxamide] | 1 to 10 nM | 10 to 100 nM | – | – | 172 to 173 °C |
| O=C(/C=C/c1cccc(NS(=O)(=O)c2ccc(C(=O)Nc3ccc(Cl)c(-c4ccccn4)c3)c(Cl)c2)c1)NO [Compound 254, (E)-2-Chloro-N-(4-chloro-3-(pyridin-2-yl)phenyl)-4-(N-(3-(3-(hydroxyamino)-3-oxoprop-1-enyl)phenyl)sulfamoyl)benzamide] | 10 to 100 nM | 100 to 1000 nM | – | – | – |
| O=C(CCCCCCNS(=O)(=O)c1ccc(C(=O)Nc2ccc(Cl)c(-c3ccccn3)c2)c(Cl)c1)NO [Compound 59, 2-Chloro-N-(4-chloro-3-(pyridin-2-yl)phenyl)-4-(N-(7-(hydroxyamino)-7-oxoheptyl)sulfamoyl)benzamide] | 10 to 100 nM | 100 to 1000 nM | – | – | – |
| Cc1nc(NCC2CCN(c3ncc(C(=O)NO)cn3)CC2)ccc1C(=O)Nc1ccc(Cl)c(-c2nc3ccccc3[nH]2)c1 [Compound 91, 2-(4-((5-(3-(1H-Benzo[d]imidazol-2-yl)-4-chlorophenylcarbamoyl)-6-methylpyridin-2-ylamino)methyl)piperidin-1-yl)-N-hydroxypyrimidine-5-carboxamide] | 10 to 100 nM | 10 to 100 nM | – | – | 194 to 196 °C |
